Assay results: ChEMBL document CHEMBL3885881, “DrugMatrix”

Species on record: Rattus norvegicus
Test: DrugMatrix - Regimen: Daily Repeat
Type: toxicity, organism-based, Sprague-Dawley
Parameters: regimen Daily Repeat, gender Male, age 6-8 weeks
Conditions: in vivo, po, route oral GAVAGE, vehicle .5 % CMC; for BASOPHIL / EOSINOPHIL / ERYTHROCYTE COUNT / HEMATOCRIT / HEMOGLOBIN / LEUKOCYTE COUNT / LYMPHOCYTE / MEAN CORPUSCULAR HEMOGLOBIN / MEAN CORPUSCULAR HEMOGLOBIN CONCENTRATION / MEAN CORPUSCULAR VOLUME / MONOCYTE / NEUTROPHIL / PLATELET COUNT: tissue Blood; for ALANINE AMINOTRANSFERASE / ALBUMIN / ALKALINE PHOSPHATASE / ASPARTATE AMINOTRANSFERASE / BLOOD UREA NITROGEN / CHLORIDE / CHOLESTEROL / CREATINE PHOSPHOKINASE / CREATININE / GLUCOSE / PHOSPHORUS / POTASSIUM / SODIUM / TOTAL BILIRUBIN / TOTAL PROTEIN: tissue Plasma
[1] = 0 mg/kg, 72 h, dose level Control, time 3 day
[2] = 0 mg/kg, 120 h, dose level Control, time 5 day
[3] = 50 mg/kg, 72 h, dose level Low, time 3 day
[4] = 50 mg/kg, 120 h, dose level Low, time 5 day
[5] = 1000 mg/kg, 72 h, dose level High, time 3 day
[6] = 1000 mg/kg, 120 h, dose level High, time 5 day

With `CC(C)NCC(O)COc1ccc(CC(N)=O)cc1` (stereo not drawn) [ATENOLOL] the BASOPHIL [1] was 0%, the EOSINOPHIL [1] was 0.33% and the “ERYTHROCYTE COUNT” value [1] was 6.2 x10E6/uL. The HEMATOCRIT [1] was 38.08%, the HEMOGLOBIN [1] was 14.92 G/DL and the “LEUKOCYTE COUNT” value [1] was 11.13 x10E3/uL. The LYMPHOCYTE [1] was 76%, the “MEAN CORPUSCULAR HEMOGLOBIN” value [1] was 24.1 pg and the “MEAN CORPUSCULAR HEMOGLOBIN CONCENTRATION” value [1] was 39.17 G/DL. For the same compound, the “MEAN CORPUSCULAR VOLUME” value [1] was 61.48 fL, the MONOCYTE [1] was 3.83% and the NEUTROPHIL [1] was 19.83%. For the same compound, the “PLATELET COUNT” value [1] was 1327.5 x10E3/uL, the “ALANINE AMINOTRANSFERASE” value [1] was 40.17 u/L and the ALBUMIN [1] was 4.07 G/DL. The “ALKALINE PHOSPHATASE” value [1] was 372 u/L, the “ASPARTATE AMINOTRANSFERASE” value [1] was 67.17 u/L and the “BLOOD UREA NITROGEN” value [1] was 18.83 mg/dL. For the same compound, the CHLORIDE [1] was 105.17 MEQ/L, the CHOLESTEROL [1] was 78.17 mg/dL and the “CREATINE PHOSPHOKINASE” value [1] was 149.17 u/L. The CREATININE [1] was 0.57 mg/dL, the GLUCOSE [1] was 185.17 mg/dL and the PHOSPHORUS [1] was 11.43 mg/dL. For the same compound, the POTASSIUM [1] was 6.78 MEQ/L, the SODIUM [1] was 152.83 MEQ/L and the “TOTAL BILIRUBIN” value [1] was 0.4 mg/dL. The “TOTAL PROTEIN” value [1] was 6.87 G/DL, the BASOPHIL [2] was 0% and the EOSINOPHIL [2] was 0%. The “ERYTHROCYTE COUNT” value [2] was 6.05 x10E6/uL, the HEMATOCRIT [2] was 36.55% and the HEMOGLOBIN [2] was 14.7 G/DL. The “LEUKOCYTE COUNT” value [2] was 11.8 x10E3/uL, the LYMPHOCYTE [2] was 86.83% and the “MEAN CORPUSCULAR HEMOGLOBIN” value [2] was 24.37 pg. For the same compound, the “MEAN CORPUSCULAR HEMOGLOBIN CONCENTRATION” value [2] was 40.32 G/DL, the “MEAN CORPUSCULAR VOLUME” value [2] was 60.47 fL and the MONOCYTE [2] was 0.83%. For the same compound, the NEUTROPHIL [2] was 12.33%, the “PLATELET COUNT” value [2] was 1177 x10E3/uL and the “ALANINE AMINOTRANSFERASE” value [2] was 41.83 u/L. The ALBUMIN [2] was 3.75 G/DL, the “ALKALINE PHOSPHATASE” value [2] was 377.5 u/L and the “ASPARTATE AMINOTRANSFERASE” value [2] was 60.83 u/L. The “BLOOD UREA NITROGEN” value [2] was 16 mg/dL, the CHLORIDE [2] was 105.67 MEQ/L and the CHOLESTEROL [2] was 67.83 mg/dL. For the same compound, the “CREATINE PHOSPHOKINASE” value [2] was 120.33 u/L, the CREATININE [2] was 0.6 mg/dL and the GLUCOSE [2] was 167.67 mg/dL. For the same compound, the PHOSPHORUS [2] was 10.03 mg/dL, the POTASSIUM [2] was 6.68 MEQ/L and the SODIUM [2] was 150.5 MEQ/L. The “TOTAL BILIRUBIN” value [2] was 0.57 mg/dL, the “TOTAL PROTEIN” value [2] was 6.25 G/DL and the BASOPHIL [3] was 0%. For the same compound, the EOSINOPHIL [3] was 0%, the “ERYTHROCYTE COUNT” value [3] was 5.54 x10E6/uL and the HEMATOCRIT [3] was 35.3%. The HEMOGLOBIN [3] was 13.9 G/DL, the “LEUKOCYTE COUNT” value [3] was 9.75 x10E3/uL and the LYMPHOCYTE [3] was 86%. The “MEAN CORPUSCULAR HEMOGLOBIN” value [3] was 25.1 pg, the “MEAN CORPUSCULAR HEMOGLOBIN CONCENTRATION” value [3] was 39.35 G/DL and the “MEAN CORPUSCULAR VOLUME” value [3] was 63.75 fL. The MONOCYTE [3] was 1%, the NEUTROPHIL [3] was 13% and the “PLATELET COUNT” value [3] was 1258 x10E3/uL. The “ALANINE AMINOTRANSFERASE” value [3] was 34.5 u/L, the ALBUMIN [3] was 3.75 G/DL and the “ALKALINE PHOSPHATASE” value [3] was 332 u/L. For the same compound, the “ASPARTATE AMINOTRANSFERASE” value [3] was 57 u/L, the “BLOOD UREA NITROGEN” value [3] was 18 mg/dL and the CHLORIDE [3] was 106 MEQ/L. The CHOLESTEROL [3] was 83 mg/dL, the “CREATINE PHOSPHOKINASE” value [3] was 110 u/L and the CREATININE [3] was 0.55 mg/dL. It also gave a GLUCOSE [3] of 164.5 mg/dL, a PHOSPHORUS [3] of 11.45 mg/dL and a POTASSIUM [3] of 6.45 MEQ/L. The SODIUM [3] was 152 MEQ/L, the “TOTAL BILIRUBIN” value [3] was 0.3 mg/dL and the “TOTAL PROTEIN” value [3] was 6.2 G/DL. The BASOPHIL [4] was 0%, the EOSINOPHIL [4] was 0% and the “ERYTHROCYTE COUNT” value [4] was 5.99 x10E6/uL. For the same compound, the HEMATOCRIT [4] was 36.17%, the HEMOGLOBIN [4] was 14.4 G/DL and the “LEUKOCYTE COUNT” value [4] was 11.97 x10E3/uL. For the same compound, the LYMPHOCYTE [4] was 88%, the “MEAN CORPUSCULAR HEMOGLOBIN” value [4] was 24.03 pg and the “MEAN CORPUSCULAR HEMOGLOBIN CONCENTRATION” value [4] was 39.8 G/DL. For the same compound, the “MEAN CORPUSCULAR VOLUME” value [4] was 60.4 fL, the MONOCYTE [4] was 1.67% and the NEUTROPHIL [4] was 10.33%. For the same compound, the “PLATELET COUNT” value [4] was 1118 x10E3/uL, the “ALANINE AMINOTRANSFERASE” value [4] was 39.67 u/L and the ALBUMIN [4] was 3.6 G/DL. For the same compound, the “ALKALINE PHOSPHATASE” value [4] was 354.33 u/L, the “ASPARTATE AMINOTRANSFERASE” value [4] was 60.33 u/L and the “BLOOD UREA NITROGEN” value [4] was 14 mg/dL. For the same compound, the CHLORIDE [4] was 104.67 MEQ/L, the CHOLESTEROL [4] was 72 mg/dL and the “CREATINE PHOSPHOKINASE” value [4] was 115 u/L. The CREATININE [4] was 0.53 mg/dL, the GLUCOSE [4] was 172.33 mg/dL and the PHOSPHORUS [4] was 10.87 mg/dL. The POTASSIUM [4] was 6.93 MEQ/L, the SODIUM [4] was 150.33 MEQ/L and the “TOTAL BILIRUBIN” value [4] was 0.3 mg/dL. For the same compound, the “TOTAL PROTEIN” value [4] was 5.93 G/DL, the BASOPHIL [5] was 0% and the EOSINOPHIL [5] was 0.67%. For the same compound, the “ERYTHROCYTE COUNT” value [5] was 5.98 x10E6/uL, the HEMATOCRIT [5] was 36.83% and the HEMOGLOBIN [5] was 14.37 G/DL. The “LEUKOCYTE COUNT” value [5] was 10.2 x10E3/uL, the LYMPHOCYTE [5] was 87.33% and the “MEAN CORPUSCULAR HEMOGLOBIN” value [5] was 24.07 pg. The “MEAN CORPUSCULAR HEMOGLOBIN CONCENTRATION” value [5] was 39.03 G/DL, the “MEAN CORPUSCULAR VOLUME” value [5] was 61.67 fL and the MONOCYTE [5] was 0.67%. The NEUTROPHIL [5] was 11.33%, the “PLATELET COUNT” value [5] was 1408.33 x10E3/uL and the “ALANINE AMINOTRANSFERASE” value [5] was 45.67 u/L. For the same compound, the ALBUMIN [5] was 3.63 G/DL, the “ALKALINE PHOSPHATASE” value [5] was 339 u/L and the “ASPARTATE AMINOTRANSFERASE” value [5] was 60.67 u/L. For the same compound, the “BLOOD UREA NITROGEN” value [5] was 14 mg/dL, the CHLORIDE [5] was 107 MEQ/L and the CHOLESTEROL [5] was 70 mg/dL. For the same compound, the “CREATINE PHOSPHOKINASE” value [5] was 137.33 u/L, the CREATININE [5] was 0.5 mg/dL and the GLUCOSE [5] was 170.33 mg/dL. The PHOSPHORUS [5] was 10.57 mg/dL, the POTASSIUM [5] was 6.17 MEQ/L and the SODIUM [5] was 151.33 MEQ/L. The “TOTAL BILIRUBIN” value [5] was 0.3 mg/dL, the “TOTAL PROTEIN” value [5] was 6 G/DL and the BASOPHIL [6] was 0%. The EOSINOPHIL [6] was 0%, the “ERYTHROCYTE COUNT” value [6] was 7.06 x10E6/uL and the HEMATOCRIT [6] was 43.27%. The HEMOGLOBIN [6] was 16.87 G/DL, the “LEUKOCYTE COUNT” value [6] was 15.07 x10E3/uL and the LYMPHOCYTE [6] was 82%. The “MEAN CORPUSCULAR HEMOGLOBIN” value [6] was 24 pg, the “MEAN CORPUSCULAR HEMOGLOBIN CONCENTRATION” value [6] was 39.07 G/DL and the “MEAN CORPUSCULAR VOLUME” value [6] was 61.43 fL. The MONOCYTE [6] was 2.67%, the NEUTROPHIL [6] was 15.33% and the “PLATELET COUNT” value [6] was 1202 x10E3/uL. For the same compound, the “ALANINE AMINOTRANSFERASE” value [6] was 39.67 u/L, the ALBUMIN [6] was 3.77 G/DL and the “ALKALINE PHOSPHATASE” value [6] was 265.33 u/L. The “ASPARTATE AMINOTRANSFERASE” value [6] was 77 u/L, the “BLOOD UREA NITROGEN” value [6] was 20 mg/dL and the CHLORIDE [6] was 111.33 MEQ/L. For the same compound, the CHOLESTEROL [6] was 76.33 mg/dL, the “CREATINE PHOSPHOKINASE” value [6] was 139.33 u/L and the CREATININE [6] was 0.6 mg/dL. It also gave a GLUCOSE [6] of 166 mg/dL, a PHOSPHORUS [6] of 11.47 mg/dL and a POTASSIUM [6] of 7 MEQ/L. The SODIUM [6] was 158.33 MEQ/L, the “TOTAL BILIRUBIN” value [6] was 0.27 mg/dL and the “TOTAL PROTEIN” value [6] was 6.3 G/DL.
